Values of other authors, collected in patent EP4119941A1, “HEMOGLOBIN ASSAY METHOD” (Sekisui Medical Co., Ltd., priority 2020, dated 2021).

Settings: at 25°C

pKa: 7.55
SMILES: O=S(=O)(O)CCNC(CO)(CO)CO [TES, N-tris(hydroxymethyl)methyl-2-aminoethanesulfonic acid]
